The values that follow come from patent publication US9751854B2 (Millennium Pharmaceuticals, Inc., priority 2014, dated 2017).

Structures are written as SMILES. pIC50: −log10 of the molar value. Some results are limits rather than exact numbers.

One assay deals with human VPS34 (Homo sapiens (Human), UniProt Q8NEB9). The experiment in a line: Human VPS34 enzyme assay (Adapta TR-FRET ADP detection).
human VPS34, sequence (Q8NEB9 whole entry): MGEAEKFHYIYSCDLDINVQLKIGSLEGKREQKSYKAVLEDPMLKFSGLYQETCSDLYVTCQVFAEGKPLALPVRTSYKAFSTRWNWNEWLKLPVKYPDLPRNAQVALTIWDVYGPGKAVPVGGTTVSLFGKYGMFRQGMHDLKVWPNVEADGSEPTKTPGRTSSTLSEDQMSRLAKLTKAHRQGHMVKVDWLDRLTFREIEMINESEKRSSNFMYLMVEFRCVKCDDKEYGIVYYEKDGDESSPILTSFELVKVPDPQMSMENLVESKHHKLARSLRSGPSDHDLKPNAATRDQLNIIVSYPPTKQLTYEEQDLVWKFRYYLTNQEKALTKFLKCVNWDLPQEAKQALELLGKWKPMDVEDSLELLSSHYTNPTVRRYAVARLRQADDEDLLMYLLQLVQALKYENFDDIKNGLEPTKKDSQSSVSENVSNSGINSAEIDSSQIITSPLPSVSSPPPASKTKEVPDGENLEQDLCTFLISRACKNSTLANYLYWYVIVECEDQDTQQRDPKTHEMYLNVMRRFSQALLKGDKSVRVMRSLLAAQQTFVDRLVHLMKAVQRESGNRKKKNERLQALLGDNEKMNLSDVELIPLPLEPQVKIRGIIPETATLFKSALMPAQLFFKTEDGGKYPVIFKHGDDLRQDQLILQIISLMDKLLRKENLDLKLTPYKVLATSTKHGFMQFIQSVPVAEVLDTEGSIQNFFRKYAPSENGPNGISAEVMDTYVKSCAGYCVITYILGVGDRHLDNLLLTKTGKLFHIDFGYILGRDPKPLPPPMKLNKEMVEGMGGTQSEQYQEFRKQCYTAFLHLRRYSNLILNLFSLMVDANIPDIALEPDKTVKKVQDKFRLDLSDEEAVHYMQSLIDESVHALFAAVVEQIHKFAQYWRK
Conditions: not given
The assay is classed as biochemical. On the set-up: Percent Inhibition: dose or concentration left out as unconfirmed. For orientation: In TR-FRET formats the signal depends on donor and acceptor labels being close together.
Regarding `CC(=O)Nc1cc(-c2cc(N(C)S(C)(=O)=O)c(C)[n+]([O-])c2)ccn1` [Compound I-129, N-(4-{6-methyl-5-[methyl(methylsulfonyl)amino]-1-oxidopyridin-3-yl}pyridin-2-yl)acetamide], the “Percent Inhibition” value is 100%.
The same measure, in the same setting: the figure for `Cc1nccc(Nc2cc(-c3cnc(N)c(C(=O)N(C)C45CC(C4)C5)c3)ccn2)n1` [Compound I-277, 6-amino-N-(bicyclo[1.1.1]pent-1-yl)-N-methyl-2′-[(2-methylpyrimidin-4-yl)amino]-3,4′-bipyridine-5-carboxamide] is 100%.
`Cc1c(-c2ccnc(N)c2)cnc(Cl)c1NS(=O)(=O)c1ccc(F)cc1F` [Compound I-287, N′-(2′-amino-6-chloro-4-methyl-3,4′-bipyridin-5-yl)-2,4-difluorobenzenesulfonamide]: the “Percent Inhibition” value was found to be 91%.

The same assay, now with this note: IC50 range class.
The term pIC50 denotes −log10 of the IC50, conventionally taken in molar units. For `CC(=O)Nc1cc(-c2cnc(N)c(S(=O)(=O)N(C(C)C)C(C)C)c2)ccn1` [Compound I-77, N-[6-amino-5-(diisopropylsulfamoyl)-3,4′-bipyridin-2′-yl]acetamide], the negative-log IC50 (pIC50) is > 8.00.
With `CC(=O)Nc1cc(-c2cncc(N(CCO)S(=O)(=O)c3ccc(F)cc3F)c2)ccn1` [Compound I-384, N-(5-{[(2,4-difluorophenyl)sulfonyl](2-hydroxyethyl)amino}-3,4′-bipyridin-2′-yl)acetamide], the negative-log IC50 (pIC50) is < 7.00.
On the same count and under the same terms, with `CC(=O)Nc1cc(-c2cnc(N)c(S(=O)(=O)Cc3ccccc3)c2)ccn1` [Compound I-6, N-[6-amino-5-(benzylsulfonyl)-3,4′-bipyridin-2′-yl]acetamide] the figure was 7.30 to 8.00.
In the case of `CC(=O)Nc1cc(-c2cnc(C)c(NS(=O)(=O)c3ccc(C(F)(F)F)nc3)c2)ccn1` [Compound I-1], the pIC50 is > 8.00.
`COC(=O)Nc1cc(-c2cncc(C(=O)C3CC3)c2)ccn1` [Compound I-180] showed a pIC50 of 7.00 to 7.30.
For `CC(=O)Nc1cc(-c2cncc(N(CC3CC3)S(C)(=O)=O)c2)ccn1` [Compound I-202, N-{5-[(cyclopropylmethyl)(methylsulfonyl)amino]-3,4′-bipyridin-2′-yl}acetamide], the negative-log IC50 (pIC50) is 7.00 to 7.30.
Take `CC(=O)Nc1cc(-c2cnc(C)c(NS(=O)(=O)c3ccc(F)c(F)c3)c2)ccn1` [Compound I-59, N-(5-{[(3,4-difluorophenyl)sulfonyl]amino}-6-methyl-3,4′-bipyridin-2′-yl)acetamide]: the negative logarithm of the IC50 (pIC50) is > 8.00.
In turn, `CNC(=O)c1cc(-c2ccnc(NC(C)=O)c2)cnc1N` [Compound I-57, 2′-acetamido-6-amino-N-methyl-3,4′-bipyridine-5-carboxamide] gave a negative-log IC50 (pIC50) of 7.30 to 8.00.
With `CCOC(=O)Nc1cc(-c2cnc(C)c(NS(=O)(=O)c3ccc(F)cc3F)c2)ccn1` [Compound I-389, ethyl (5-{[(2,4-difluorophenyl)sulfonyl]amino}-6-methyl-3,4′-bipyridin-2′-yl)carbamate], the pIC50 is > 8.00.
In the case of `CC(=O)Nc1cc(-c2cncc(S(=O)(=O)N(C)C)c2)ccn1` [Compound I-137, N-[5-(dimethylsulfamoyl)-3,4′-bipyridin-2′-yl]acetamide], the pIC50 was 7.30 to 8.00.
In the case of `CC(=O)Nc1cc(-c2cnc3c(c2)S(=O)(=O)NCCO3)ccn1` [Compound I-484, N-(4-(1,1-dioxido-3,4-dihydro-2H-pyrido[2,3-b][1,4,5]oxathiazepin-8-yl)pyridin-2-yl)acetamide], the pIC50 was 7.00 to 7.30.
On the same count and under the same terms, with `Cc1ncc(-c2ccnc(Nc3ccn(C)n3)c2)cc1NS(=O)(=O)c1ccc(F)cc1F` [Compound I-301, 2,4-difluoro-N-{6-methyl-2′-[(1-methyl-1H-pyrazole-3-yl)amino]-3,4′-bipyridin-5-yl]benzenesulfonamide] the figure was 7.30 to 8.00.
The same measure, in the same setting: with `Cc1nccc(Nc2cc(-c3cncc(C(C)Oc4ccccc4Cl)c3)ccn2)n1` (stereo not shown) [Compound I-336, 5-[1-(2-chlorophenoxy)ethyl]-N-(2-methylpyrimidin-4-yl)-3,4′-bipyridin-2′-amine] the figure was 7.30 to 8.00.
Still for that read-out and setting: the figure for `CC(=O)Nc1cc(-c2cnc(C)c(NS(=O)(=O)N3CCC3)c2)ccn1` [Compound I-257, N-{5-[(azetidin-1-ylsulfonyl)amino]-6-methyl-3,4′-bipyridin-2′-yl}acetamide] is 7.30 to 8.00; for `CC(=O)Nc1cc(-c2cnc3ccn(CC4CC4)c3c2)ccn1` [Compound I-93, N-{4-[1-(cyclopropylmethyl)-1H-pyrrolo[3,2-b]pyridin-6-yl]pyridin-2-yl}acetamide] it is 7.30 to 8.00; for `CC(=O)Nc1cc(-c2cc(N(C)S(C)(=O)=O)c(C)[n+]([O-])c2)ccn1` [Compound I-129, N-(4-{6-methyl-5-[methyl(methylsulfonyl)amino]-1-oxidopyridin-3-yl}pyridin-2-yl)acetamide] it is < 7.00.
In turn, `COC(=O)Nc1cc(-c2cnc3ccn(CC4CC4)c3c2)ccn1` [Compound I-42, Methyl {4-[1-(cyclopropylmethyl)-1H-pyrrolo[3,2-b]pyridin-6-yl]pyridin-2-yl}carbamate] showed a pIC50 of 7.30 to 8.00.
The same measure, in the same setting: with `CC(=O)Nc1cc(-c2cnc(N)c(N3CCCS3(=O)=O)c2)ccn1` [Compound I-181, N-[6-amino-5-(1,1-dioxidoisothiazolidin-2-yl)-3,4′-bipyridin-2′-yl]acetamide] the figure was > 8.00; with `COC(=O)Nc1cc(-c2cnc(N)c(C(=O)N(C)C)c2)ccn1` [Compound I-55, methyl [6-amino-5-(dimethylcarbamoyl)-3,4′-bipyridin-2′-yl]carbamate], > 8.00; with `Cc1nccc(Nc2cc(-c3cnc(N)c(C(=O)N(C)C45CC(C4)C5)c3)ccn2)n1` [Compound I-277, 6-amino-N-(bicyclo[1.1.1]pent-1-yl)-N-methyl-2′-[(2-methylpyrimidin-4-yl)amino]-3,4′-bipyridine-5-carboxamide], > 8.00.
Compound `Cc1cc(Nc2cc(-c3cnc(Cl)c(NS(=O)(=O)c4ccc(F)cc4F)c3C)ccn2)ccn1` [Compound I-272, N-{6-chloro-4-methyl-2′-[(2-methylpyridin-4-yl)amino]-3,4′-bipyridin-5-yl}-2,4-difluorobenzenesulfonamide] gave a negative logarithm of the IC50 (pIC50) of 7.00 to 7.30.
Same read-out and setting: with `CC(=O)Nc1cc(-c2cnc(C)c(NS(=O)(=O)c3ccc(F)cc3F)c2)c(F)cn1` [Compound I-161, N-(5-{[(2,4-difluorophenyl)sulfonyl]amino}-5′-fluoro-6-methyl-3,4′-bipyridin-2′-yl)acetamide] the figure was > 8.00.
Still for that read-out and setting: with `CC(=O)Nc1cc(-c2cnc(N)c(S(=O)(=O)NCC3CC3)c2)ccn1` [Compound I-108, N-(6-amino-5-[(cyclopropylmethyl)sulfamoyl]-3,4′-bipyridin-2′-yl]acetamide] the figure was 7.30 to 8.00; with `Cc1nccc(Nc2cc(-c3cnc(C)c(OCc4ccccc4)c3)ccn2)n1` [Compound I-363, 5-(benzyloxy)-6-methyl-N-(2-methylpyrimidin-4-yl)-3,4′-bipyridin-2′-amine], < 7.00.
Turning to `CC(=O)Nc1cc(-c2cncc(NS(=O)(=O)c3ccc(F)cc3F)c2Cl)ccn1` [Compound I-394, N-(4-chloro-5-{[(2,4-difluorophenyl)sulfonyl]amino}-3,4′-bipyridin-2′-yl)acetamide], the negative-log IC50 (pIC50) was 7.30 to 8.00.
For the compound `Cc1ncc(-c2ccnc(Nc3ncccn3)c2)cc1NS(=O)(=O)c1ccc(F)cc1F` [Compound I-265, 2,4-difluoro-N-[6-methyl-2′-(pyrimidin-2-ylamino)3,4′-bipyridin-5-yl]benzenesulfonamide], the negative-log IC50 (pIC50) is > 8.00.
The same measure, in the same setting: with `CC(=O)Nc1cc(-c2cnc(C)c(NS(=O)(=O)c3ccc(F)cc3F)c2)c(C)cn1` [Compound I-177, N-(5-{[(2,4-difluorophenyl)sulfonyl]amino}-5′,6-dimethyl-3,4′-bipyridin-2′-yl)acetamide] the figure was 7.30 to 8.00; with `CC(=O)Nc1cc(-c2cnc3c(c2)NS(=O)(=O)N3CC2CC2)ccn1` [Compound I-68, N-{4-[3-(cyclopropylmethyl)-2,2-dioxido-1,3-dihydro[1,2,5]thiadiazolo[3,4-b]pyridin-6-yl)pyridin-2-yl}acetamide], < 7.00; with `COc1ncc(-c2ccnc(NC(C)=O)c2)cc1NC(=O)c1ccc(F)cc1F` [Compound I-347, N-(2′-acetamido-6-methoxy-3,4′-bipyridin-5-yl)-2,4-difluorobenzamide], < 7.00.
The same measure, in the same setting: the figure for `CC(=O)Nc1cc(-c2cnc(C)c(N3CCCNS3(=O)=O)c2)ccn1` [Compound I-387, N-[5-(1,1-dioxido-1,2,6-thiadiazinan-2-yl)-6-methyl-3,4′-bipyridin-2′-yl]acetamide] is 7.30 to 8.00; for `CC(=O)Nc1cc(-c2cnc(N)c(S(=O)(=O)N(C)C)c2)c(F)cn1` [Compound I-186] it is 7.30 to 8.00; for `Cc1ncc(-c2ccnc(Nc3ccnc(C4CC4)n3)c2)cc1C(=O)N1CCC1` [Compound I-246, azetidin-1-yl{2′-[(2-cyclopropylpyrimidin-4-yl)amino]-6-methyl-3,4′-bipyridin-5-yl}methanone] it is 7.30 to 8.00.
For the compound `CC(=O)Nc1cc(-c2cnc(C)c(NS(=O)(=O)N3CCCC3)c2)ccn1` [Compound I-274, N-{6-methyl-5-[(pyrrolidin-1-ylsulfonyl)amino]-3,4′-bipyridin-2′-yl}acetamide], the pIC50 was 7.30 to 8.00.
As to `CC(=O)Nc1cc(-c2cnc(C)c(NS(=O)(=O)N3CCCCCC3)c2)ccn1` [Compound I-341], the pIC50 was 7.30 to 8.00.
Take `CC(=O)Nc1cc(-c2cnc(C)c(OS(=O)(=O)c3ccc(F)cc3F)c2)ccn1` [Compound I-478, 2′-acetamido-6-methyl-3,4′-bipyridin-5-yl 2,4-difluorobenzenesulfonate]: the pIC50 was 7.30 to 8.00.
Consider `CN(C)S(=O)(=O)c1cc(-c2ccnc(Nc3ncco3)c2)cnc1N` [Compound I-166, 6-amino-N,N-dimethyl-2′-(1,3-oxazol-2-ylamino)-3,4′-bipyridine-5-sulfonamide], for which the negative-log IC50 (pIC50) is > 8.00.
The same measure, in the same setting: with `Cc1c(-c2ccnc(N)c2)cnc(Cl)c1NS(=O)(=O)c1ccc(F)cc1F` [Compound I-287, N′-(2′-amino-6-chloro-4-methyl-3,4′-bipyridin-5-yl)-2,4-difluorobenzenesulfonamide] the figure was < 7.00.
On the same count and under the same terms, with `CC(=O)Nc1cc(-c2cnc(C)c(NS(=O)(=O)c3ccc(C)cc3F)c2)ccn1` [Compound I-182, N-(5-{[(2-fluoro-4-methylphenyl)sulfonyl]amino}-6-methyl-3,4′-bipyridin-2′-yl)acetamide] the figure was > 8.00; with `CC(=O)Nc1cc(-c2cnc(C)c(N3CCCNC3=O)c2)ccn1` [Compound I-460, N-[6-methyl-5-(2-oxotetrahydropyrimidin-1(2H)-yl)-3,4′-bipyridin-2′-yl]acetamide], < 7.00; with `CC(=O)Nc1cc(-c2cnc3ccn(S(=O)(=O)C4CC4)c3c2)ccn1` [Compound I-199, N-{4-[1-(cyclopropylsulfonyl)-1H-pyrrolo[3,2-b]pyridin-6-yl]pyridin-2-yl}acetamide], > 8.00.
